Tested on: C2C12
Experiment: Induction of [3H]2-deoxy-D-glucose uptake in mouse C2C12 cells after 18 hrs by scintillation counting
Type: functional, cell-based

EC50: 1470 nM
Structure (SMILES): C=C(C)[C@@H]1CC[C@]2(CO)CC[C@]3(C)[C@H](CC[C@@H]4[C@@]5(C)CC[C@H](OC(=O)/C=C/c6ccc(O)c(O)c6)[C@@](C)(CO)[C@@H]5CC[C@]43C)[C@@H]12

Reference: ChEMBL document CHEMBL1221397, “Bioassay-guided isolation of the antidiabetic principle from Sorbus decora (Rosaceae) used traditionally by the Eeyou Istchee Cree First Nations” (J Nat Prod, 2010)
